SMILES strings stand for the structures. Entries after “also recorded” stand apart in the source; their conditions may differ.

Experimental findings from US10180422B1, “Methods of treating a neuroendocrine tumor” (Scripps Health, priority 2017, dated 2019) are described below.

For the series, the system named is neuroendocrine tumor (NET) with ETV6:NTRK3 translocation. Kind of series: Treatment of a NET patient with the Trk inhibitor entrectinib (case report, Example 1). The class given is in vivo, human. To be noted: for weight gain: patient. The source says: A previously healthy patient presented with progressive low back pain and 11 kg weight loss over the previous year. They were a never-smoker, occasional alcohol drinker, and an avid runner. The patient had no relevant family history of cancer.
A right upper quadrant ultrasound noted echogenic masses present in the liver. A computed tomography (CT) scan identified low-density liver lesions, adrenal masses, bulky retroperitoneal and pelvic lymphadenopathy, and diffuse bony disease. […] Multiple hypermetabolic liver lesions are seen, and innumerable lesions are seen throughout the skeleton (FIG. 1A). CT-guided biopsy of the left iliac bone reported well-differentiated neuroendocrine carcinoma (NETs), possibly from a lower GI source. […] Repeat CT-guided core biopsy of a right iliac soft tissue mass confirmed the absence of a high-grade component, consistent with the initial biopsy.
The patient received 3000 cGy of palliative radiotherapy to L1-S3 in 10 fractions for pain management followed by temozolomide and capecitabine chemotherapy.
Following chemotherapy, a tumor biopsy was obtained from the patient's lymph node, FFPE slides were prepared, and the NTRK status of the patient's NET was first analyzed by immunohistochemistry (IHC). The patient's tumor was positive for altered NTRK protein expression and the NET was subsequently analyzed by RNAseq NGS. An ETV6:NTRK3 translocation was identified in the patient's tumor and therapy was initiated with the investigational agent entrectinib, a potent oral tyrosine kinase inhibitor of TrkA, TrkB, and TrkC.

The mark [1] stands for this setting: after cycle #1 (one month) of entrectinib treatment.

Regarding `CN1CCN(c2ccc(C(=O)Nc3n[nH]c4ccc(Cc5cc(F)cc(F)c5)cc34)c(NC3CCOCC3)c2)CC1` [entrectinib, N-[5-(3,5-difluoro-benzyl)-1h-indazol-3-yl]-4-(4-methyl-piperazin-1-yl)-2-(tetrahydro-pyran-4-ylamino)-benzamide], for the setting “after 1 cycle of entrectinib, compared with the scan after chemotherapy (FIG. 3B vs 3A)”, the “axial contrast-enhanced abdominal CT, left pelvic sidewall masses” value was “appear swollen and measure larger, but are lower in density; also recorded: appeared swollen and measured larger, but was lower in density than the previous scan”. Where the note is “after 2 cycles of entrectinib (FIG. 1B, right proximal femur)”, the “FDG-PET imaging, skeleton / bony disease” value is on record as “improvement in the previously confluent bony disease; also recorded: clear improvement was observed in the skeleton”. Also, the “octreoscan, overall disease (tumor) burden” value (after 6 months (6 cycles) of entrectinib, compared with presentation (FIG. 2B vs 2A)) was “significant overall reduction in tumor burden; also recorded: significant reduction in overall disease burden”. Also, under setting [1], the “pain and energy levels (patient-reported)” value was “significant improvement in pain and energy levels”; the weight gain was 6 kg. Moreover, the “clinical status (energy, activity, pain control requirements)” value (at 8 months on entrectinib) was “normalized energy and activity, and markedly reduced pain control requirements”. The “response of liver metastases” value (during entrectinib treatment) is “some liver metastases have responded, while others have not”. In addition, where the note is “patient on entrectinib up to 8 months”, the adverse events result was “no notable adverse events”. Where the note is “at 8 months on entrectinib, stabilized”, this compound had a weight gain of 12 kg. Moreover, the “follow-up CT scans, pelvic nodal masses” value (subsequent months of entrectinib treatment) is “continued shrinkage of the pelvic nodal masses”.
